This note sets out measurements from US20260015350A1, “AZAQUINAZOLINE PAN-KRAS INHIBITORS” (Mirati Therapeutics, Inc., priority 2022, published 2026).

Test [1] has as its target T1, KRas^G12V (Homo sapiens, UniProt P01116, G12V).
T1 construct: Biotinylated KRas (corresponding to amino acids 1-169, produced at Accelegan Inc.); biotin (biotinylated); purchased Accelegan Inc
The test can be described thus: KRas binding assay (TR-FRET tracer displacement), KRas G12V. On the technique in general: TR-FRET usually uses a lanthanide donor and a delayed reading to cut background.

For test [2], the target named is T2, KRas^G12D (Homo sapiens, UniProt P01116, G12D).
T2 construct: Biotinylated KRas (corresponding to amino acids 1-169, produced at Accelegan Inc.); biotin (biotinylated); purchased Accelegan Inc
The test can be described thus: KRas binding assay (TR-FRET tracer displacement), KRas G12D.

Test [3] deals with T3, KRas^G12R (Homo sapiens, UniProt P01116, G12R).
T3 construct: Biotinylated KRas (corresponding to amino acids 1-169, produced at Accelegan Inc.); biotin (biotinylated); purchased Accelegan Inc
In words: KRas binding assay (TR-FRET tracer displacement), KRas G12R.

For test [4], the system named is KRas-mediated phosphorylation of ERK in AsPC-1 cells. In words: Inhibition of KRas-mediated phosphorylation of ERK (Cisbio HTRF pERK), AsPC-1 cells. It is filed as cell-based. Conditions: Homo sapiens; for IC50: ASPC1, AsPC-1 cells, HTRF pERK; for inhibition at 0.1 µM: ASPC1, 3 h, single point, 100 nM compound, 3 hrs, AsPC-1 cells. Put shortly: (§1)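 Signal read by HTRF (d2/Cryptate antibody pair, 2 hr room-temperature incubation on lysate). Cells: 6,000 per well, 3 hr compound exposure. Titration: 10 uM highest, 3-fold, 10 points.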

Test [5] relates to KRas-mediated phosphorylation of ERK in H460 cells. The test can be described thus: Inhibition of KRas-mediated phosphorylation of ERK (Cisbio HTRF pERK), H460 cells. It counts as cell-based. Conditions: Homo sapiens; for inhibition at 0.1 µM: NCI-H460, 3 h, single point, 100 nM compound, 3 hrs; for IC50: NCI-H460, HTRF pERK. Here is the method:
(§2) Inhibition of KRas Phosphorylation of ERK (HTRF) by Exemplary Compounds of Formula (I) Cisbio HTRF Advanced PERK Assay Catalog #64[…] […] Add 10 mL of media to stop trypsinizing. Pipette the cells into a conical bottom 50 mL centrifuge tube and centrifuge 5 min×1000 rpm. […] Re-suspend the cell pellet in media, take a cell count, and then adjust the cell density using fresh media. […] Seed 6,000 cells into cell culture plate with 50 μL media. […] Use Tecan to complete the compound addition. Compounds start from 10 uM top, 3-fold dilution, and 10 doses. The final DMSO concentration is 0.8%. Dispensed 0.2 uM Trametinib as Min control. […] Incubate cell plate for 3 hrs in the incubator. […] Dilute 1 volume of 4× lysis buffer with 3 volumes of deionized water. […] Keep lysis buffer on the ice. […] At the end of the compound treatment, flick-off the media. […] Add 35 μL of lysis buffer per well using a Multidrop Combi. Then place on a plate agitator shaking at 300 rpm at 4° C. for 40 mins. […] Make up the HTRF antibody buffer. For each assay plate, mix 50 μL of d2-conjugate antibody with 950 μL of detection buffer. Similarly, mix 50 μL of Cryptate antibody with 950 μL of detection buffer. Then mix the two diluted antibodies together. […] Dispense 3.4 μL the antibody buffer to wells of an empty assay plate. Seal the plate and centrifuge plate 30 sec×1000 rpm. […] At the end of the 4° C. lysis, centrifuge the lysate plates 3 mins×1500 rpm. […] Use the Bravo to transfer 13.6 μL of lysate from cell culture plate to assay plate. Then incubate assay plate for 2 hrs at room temperature. 8. At the end of incubation, read plate on the Envision after centrifuging plate 30 sec×1000 rpm.

The test system of test [6] is KRas-mediated phosphorylation of ERK in HCT116 cells. The test can be described thus: Inhibition of KRas-mediated phosphorylation of ERK (Cisbio HTRF pERK), HCT116 cells. It is filed as cell-based. To be noted: Homo sapiens; for inhibition at 0.1 µM: HCT-116, 3 h, single point, 100 nM compound, 3 hrs. Here is the method: as §2
For test [7], the system named is KRas-mediated phosphorylation of ERK in H727 cells. The test can be described thus: Inhibition of KRas-mediated phosphorylation of ERK (Cisbio HTRF pERK), H727 cells. It is filed as cell-based. To be noted: Homo sapiens; for IC50: NCI-H727, H727 cells, HTRF pERK; for inhibition at 0.1 µM: NCI-H727, 3 h, single point, 100 nM compound, 3 hrs, H727 cells. The essentials: as §1

Test [8] relates to KRas-mediated phosphorylation of ERK in A549 cells. The test can be described thus: Inhibition of KRas-mediated phosphorylation of ERK (Cisbio HTRF pERK), A549 cells. Conditions: Homo sapiens, HTRF pERK. It is filed as cell-based. Here is the method:
as §2

SMILES strings stand for the structures. Bounds are passed on as bounds.

T1 sequence (P01116 1-169 isoform P01116-2 G12V): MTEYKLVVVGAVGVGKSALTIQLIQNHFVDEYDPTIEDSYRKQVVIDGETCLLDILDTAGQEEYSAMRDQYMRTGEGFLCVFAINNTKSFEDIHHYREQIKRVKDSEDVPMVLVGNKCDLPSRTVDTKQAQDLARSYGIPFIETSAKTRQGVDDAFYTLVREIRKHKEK
T2 sequence (P01116 1-169 isoform P01116-2 G12D): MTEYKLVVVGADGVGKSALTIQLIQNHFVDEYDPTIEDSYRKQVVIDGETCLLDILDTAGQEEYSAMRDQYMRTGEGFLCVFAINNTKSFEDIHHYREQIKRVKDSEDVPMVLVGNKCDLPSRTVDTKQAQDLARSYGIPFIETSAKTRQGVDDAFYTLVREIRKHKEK
T3 sequence (P01116 1-169 isoform P01116-2 G12R): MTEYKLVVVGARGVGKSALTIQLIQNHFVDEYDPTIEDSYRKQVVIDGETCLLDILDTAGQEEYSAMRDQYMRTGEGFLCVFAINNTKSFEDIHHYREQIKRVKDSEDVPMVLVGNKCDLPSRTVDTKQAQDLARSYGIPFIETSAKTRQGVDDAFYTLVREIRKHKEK

`CCc1c(F)ccc2cc(O)cc(-c3ncc4c(N5CCC[C@@](C)(O)C5)nc(OCC5(CN)CC5)nc4c3F)c12` [Example 536, (R)-1-(2-((1-(aminomethyl)cyclopropyl)methoxy)-7-(8-ethyl-7-fluoro-3-hydroxynaphthalen-1-yl)-8-fluoropyrido[4,3-d]pyrimidin-4-yl)-3-methylpiperidin-3-ol]: the IC50 in test [1] is 5 nM; in test [2], 5 nM; in test [3], 9 nM; in test [4], 4550 nM; in test [7] it was 3440 nM. Moreover, the inhibition at 0.1 µM in test [5] was -9%; in test [6], 9%.
On to `CCc1c(F)ccc2cc(O)cc(-c3ncc4c(N5CCC[C@H](C)C5)nc(OC[C@@]56CCCN5C[C@H](F)C6)nc4c3F)c12` [Example 541, 5-ethyl-6-fluoro-4-(8-fluoro-2-(((2R,7aS)-2-fluorohexahydro-1H-pyrrolizin-7a-yl)methoxy)-4-((S)-3-methylpiperidin-1-yl)pyrido[4,3-d]pyrimidin-7-yl)naphthalen-2-ol], for which the IC50 in test [4] came out at 198 nM; in test [5], 107 nM; in test [6] (HCT-116, HTRF pERK), 208 nM; in test [7], 240 nM; in test [8] it was 216 nM.
For `CCc1c(F)ccc2cc(O)cc(-c3ncc4c(NC5CC6(CCCO6)C5)nc(OC[C@@]56CCCN5C[C@H](F)C6)nc4c3F)c12` (stereo partly drawn) [Example 554, 4-(4-(5-oxaspiro[3.4]octan-2-ylamino)-8-fluoro-2-(((2R,7aS)-2-fluorohexahydro-1H-pyrrolizin-7a-yl)methoxy)pyrido[4,3-d]pyrimidin-7-yl)-5-ethyl-6-fluoronaphthalen-2-ol], the IC50 came to 9 nM in test [1]; 79 nM in test [2]; 10 nM in test [3]; 2380 nM in test [4]; 410 nM in test [7]; 742 nM in test [8].
With `CCc1c(F)ccc2cc(O)cc(-c3ncc4c(N5CCC[S+]([O-])CC5)nc(OC[C@@]56CCCN5C[C@H](F)C6)nc4c3F)c12` (stereo partly drawn) [Example 558, 4-(7-(8-ethyl-7-fluoro-3-hydroxynaphthalen-1-yl)-8-fluoro-2-(((2R,7aS)-2-fluorohexahydro-1H-pyrrolizin-7a-yl)methoxy)pyrido[4,3-d]pyrimidin-4-yl)-1,4-thiazepane 1-oxide], the IC50 was less than 2 nM in test [1]; less than 2 nM in test [2]; less than 2 nM in test [3]; 312 nM in test [4]; 603 nM in test [7]; 822 nM in test [8].
For the molecule `CCc1c(F)ccc2cc(O)cc(-c3ncc4c(NC[C@@H]5C[C@H](CO)NC5=O)nc(OC[C@@]56CCCN5C[C@H](F)C6)nc4c3F)c12` [Example 576, (3S,5R)-3-(((7-(8-ethyl-7-fluoro-3-hydroxynaphthalen-1-yl)-8-fluoro-2-(((2R,7aS)-2-fluorotetrahydro-1H-pyrrolizin-7a(5H)-yl)methoxy)pyrido[4,3-d]pyrimidin-4-yl)amino)methyl)-5-(hydroxymethyl)pyrrolidin-2-one], the IC50 was 10 nM in test [1], 45 nM in test [2], 37 nM in test [3] and greater than 10000 nM in test [7]. Also, the inhibition at 0.1 µM in test [4] is 1%; in test [5], -3%; in test [6], -15%; in test [7], -2%.
With `CCc1c(F)ccc2cc(O)cc(-c3ncc4c(N5CC6C(=O)NC(=O)C6C5C)nc(OC[C@@]56CCCN5C[C@H](F)C6)nc4c3F)c12` (stereo partly drawn) [Example 590, 5-(7-(8-ethyl-7-fluoro-3-hydroxynaphthalen-1-yl)-8-fluoro-2-(((2R,7aS)-2-fluorohexahydro-1H-pyrrolizin-7a-yl)methoxy)pyrido[4,3-d]pyrimidin-4-yl)-4-methyltetrahydropyrrolo[3,4-c]pyrrole-1,3(2H,3aH)-dione], the concentration for half-maximal inhibition (IC50) came to 3 nM in test [1]; 2 nM in test [2]; 2 nM in test [3]; 505 nM in test [4]; 833 nM in test [7]; 494 nM in test [8].
`CCc1c(F)ccc2cc(O)cc(-c3ncc4c(N5C[C@H]6C[C@@H](C5)C(=O)NC6=O)nc(OC[C@@]56CCCN5C[C@H](F)C6)nc4c3F)c12` [Example 591, (1R,5S)-7-(7-(8-ethyl-7-fluoro-3-hydroxynaphthalen-1-yl)-8-fluoro-2-(((2R,7aS)-2-fluorotetrahydro-1H-pyrrolizin-7a(5H)-yl)methoxy)pyrido[4,3-d]pyrimidin-4-yl)-3,7-diazabicyclo[3.3.1]nonane-2,4-dione]: the IC50 in test [4] was determined as 1540 nM; in test [5], 138 nM; in test [7], 245 nM; in test [8], 357 nM.
On to `CCc1c(F)ccc2cc(O)cc(-c3ncc4c(N5CC6COCC(CO)(C5)C6(F)F)nc(OC[C@@]56CCCN5C[C@H](F)C6)nc4c3F)c12` (stereo partly drawn) [Example 645, 4-(4-(9,9-difluoro-1-(hydroxymethyl)-3-oxa-7-azabicyclo[3.3.1]nonan-7-yl)-8-fluoro-2-(((2R,7aS)-2-fluorotetrahydro-1H-pyrrolizin-7a(5H)-yl)methoxy)pyrido[4,3-d]pyrimidin-7-yl)-5-ethyl-6-fluoronaphthalen-2-ol], for which the IC50 in test [1] was found to be 139 nM; in test [2] it was 313 nM; in test [3] it was 257 nM; in test [4] it was 4640 nM; in test [7], 3720 nM. Moreover, the inhibition at 0.1 µM in test [5] was determined as 4%; in test [6], 6%.
Regarding `CCc1c(F)ccc2cc(O)cc(-c3ncc4c(NC5CCCc6c(C(=O)N(C)C)nn(C)c65)nc(OC[C@@]56CCCN5C[C@H](F)C6)nc4c3F)c12` (stereo partly drawn) [Example 672, 7-((7-(8-ethyl-7-fluoro-3-hydroxynaphthalen-1-yl)-8-fluoro-2-(((2R,7aS)-2-fluorohexahydro-1H-pyrrolizin-7a-yl)methoxy)pyrido[4,3-d]pyrimidin-4-yl)amino)-N,N,1-trimethyl-4,5,6,7-tetrahydro-1H-indazole-3-carboxamide], the IC50 in test [1] came to 5 nM; in test [2], 8 nM; in test [3] it was 4 nM; in test [4], 469 nM; in test [7], 1260 nM; in test [8], 541 nM.
As to `CCc1c(F)ccc2cc(O)cc(-c3ncc4c(N5CCC[C@@](C)(O)C5)nc(OCC5(CN(C)C)CC5C)nc4c3F)c12` (stereo partly drawn) [Example 702, (3R)-1-(2-((1-((dimethylamino)methyl)-2-methylcyclopropyl)methoxy)-7-(8-ethyl-7-fluoro-3-hydroxynaphthalen-1-yl)-8-fluoropyrido[4,3-d]pyrimidin-4-yl)-3-methylpiperidin-3-ol], the inhibition at 0.1 µM in test [4] is 56%; in test [5] it was 61%; in test [6] it was 37%; in test [7] it was 7%. Besides, the IC50 amounted to 32 nM in test [4] and 149 nM in test [7].
With `CCc1c(F)ccc2cc(O)cc(-c3ncc4c(N5CC6CCC(CCC(N)=O)(C6)C5)nc(OC[C@@]56CCCN5C[C@H](F)C6)nc4c3F)c12` (stereo partly drawn) [Example 910, 3-(3-(7-(8-ethyl-7-fluoro-3-hydroxynaphthalen-1-yl)-8-fluoro-2-(((2R,7aS)-2-fluorotetrahydro-1H-pyrrolizin-7a(5H)-yl)methoxy)pyrido[4,3-d]pyrimidin-4-yl)-3-azabicyclo[3.2.1]octan-1-yl)propanamide], the IC50 in test [1] was 8 nM; in test [2], 22 nM; in test [3], 9 nM; in test [4], 8160 nM; in test [7] it was 1670 nM.

Broadly, the IC50 is the midpoint of a concentration-inhibition curve. As usually defined, the inhibition is the relative decrease from the control value, in per cent.
